Assay results published in patent publication US10774092B2 (SALK INSTITUTE FOR BIOLOGICAL STUDIES, priority 2014, dated 2020).

target: ULK1; test: ULK1 inhibition assay (Table 1); format: biochemical; settings: * = tested as a mixture of regioisomers

First: CC(Cl)CNc1nc(Nc2ccc3c(c2)CCC(=O)N3)ncc1C(F)(F)F (centres unmarked) [Example 183b, 6-((4-((2-chloropropyl)amino)-5-(trifluoromethyl)pyrimidin-2-yl)amino)-3,4-dihydroquinolin-2(1H)-one]
Second: CC(CCl)Nc1nc(Nc2ccc3c(c2)CCC(=O)N3)ncc1C(F)(F)F (centres unmarked) [Example 183c, 6-((4-((1-chloropropan-2-yl)amino)-5-(trifluoromethyl)pyrimidin-2-yl)amino)-3,4-dihydroquinolin-2(1H)-one]
The IC50 of the first is lower: < 200 nM for the first, > 2000 nM for the second.

First: CN(c1ccccc1)c1nc(Nc2ccc3c(c2)CCC(=O)N3)ncc1C(F)(F)F [Example 184a, 6-((4-(methyl(phenyl)amino)-5-(trifluoromethyl)pyrimidin-2-yl)amino)-3,4-dihydroquinolin-2(1H)-one]
Second: CN(c1ccccc1)c1ncc(C(F)(F)F)c(Nc2ccc3c(c2)CCC(=O)N3)n1 [Example 184b, 6-((2-(methyl(phenyl)amino)-5-(trifluoromethyl)pyrimidin-4-yl)amino)-3,4-dihydroquinolin-2(1H)-one]
The IC50 of the first is higher: 200 to 2000 nM for the first, < 200 nM for the second.

`Oc1ncc(C(F)(F)F)c(NC2CC2)n1` [Example 189, 4-(cyclopropylamino)-5-(trifluoromethyl)pyrimidin-2-ol] and `N=c1ccon1-c1ncc(C(F)(F)F)c(NC2CC2)n1` [Example 214b, N-cyclopropyl-2-(3-iminoisoxazol-2(3H)-yl)-5-(trifluoromethyl)pyrimidin-4-amine] cannot be ordered by IC50: > 2000 nM for the first, > 2000 nM for the second.

Compared with `FC(F)(F)c1cnc(Nc2cccnc2)nc1NC1CC1` [Example 196, N4-cyclopropyl-N2-(pyridin-3-yl)-5-(trifluoromethyl) pyrimidine-2,4-diamine], `FC(F)(F)c1cnc(Nc2cncnc2)nc1NC1CC1` [Example 203, N4-cyclopropyl-N2-(pyrimidin-5-yl)-5-(trifluoromethyl) pyrimidine-2,4-diamine] is lower in IC50: > 2000 nM for the first, < 200 nM for the second. The second is the more potent here.

Compared with `O=C1CCc2cc(Nc3ncc(C(F)(F)F)c(NC4CNC4)n3)ccc2N1` [Example 198a, 6-((4-(azetidin-3-ylamino)-5-(trifluoromethyl)pyrimidin-2-yl)amino)-3,4-dihydroquinolin-2(1H)-one], `O=C1Cc2cc(Nc3ncc(C(F)(F)F)c(NC4CC4)n3)ccc2N1` [Example 240, 5-((4-(cyclopropylamino)-5-(trifluoromethyl)pyrimidin-2-yl)amino)indolin-2-one] is lower in IC50: 200 to 2000 nM for the first, < 200 nM for the second. The second is the more potent here.

`O=C1CCc2cc(Nc3ncc(C(F)(F)F)c(NC4CN(c5nc(Nc6ccc7c(c6)CCC(=O)N7)ncc5C(F)(F)F)C4)n3)ccc2N1` [Example 198b, 6-((4-(3-((2-((2-oxo-1,2,3,4-tetrahydroquinolin-6-yl)amino)-5-(trifluoromethyl)pyrimidin-4-yl)amino)azetidin-1-yl)-5-(trifluoromethyl)pyrimidin-2-yl)amino)-3,4-dihydroquinolin-2(1H)-one] and `O=C1CCc2cc(Nc3ncc(C(F)(F)F)c(O)n3)ccc2N1` [Example 231b, 6-((4-hydroxy-5-(trifluoromethyl)pyrimidin-2-yl)amino)-3,4-dihydroquinolin-2(1H)-one] cannot be ordered by IC50: > 2000 nM for the first, > 2000 nM for the second.

`c1cc(NC2CC2)nc(Nc2cnc3[nH]ccc3c2)n1` [Example 204, N4-cyclopropyl-N2-(1H-pyrrolo[2,3-b]pyridin-5-yl)pyrimidine-2,4-diamine] and `O=c1[nH]c2ccc(Nc3nccc(NC4CC4)n3)cc2[nH]1` [Example 232, 5-((4-(cyclopropylamino)pyrimidin-2-yl)amino)-1,3-dihydro-2H-benzo[d]imidazol-2-one] cannot be ordered by IC50: > 2000 nM for the first, > 2000 nM for the second.

First: OC1Nc2ccc(Nc3ncc(C(F)(F)F)c(NC4CC4)n3)cc2O1 (centres unmarked) [Example 208b, 6-((4-(cyclopropylamino)-5-(trifluoromethyl)pyrimidin-2-yl)amino)-2,3-dihydrobenzo[d]oxazol-2-ol]
Second: FC(F)(F)c1cnc(Nc2ccon2)nc1NC1CC1 [Example 214a, N4-cyclopropyl-N2-(isoxazol-3-yl)-5-(trifluoromethyl)pyrimidine-2,4-diamine]
The IC50 of the first is lower: < 200 nM for the first, 200 to 2000 nM for the second.

Compared with `O=C1CCc2cc(Nc3ncc(C(F)(F)F)c(OCCNCCO)n3)ccc2N1` [Example 212b, 6-((4-(2-((2-hydroxyethyl)amino)ethoxy)-5-(trifluoromethyl)pyrimidin-2-yl)amino)-3,4-dihydroquinolin-2(1H)-one], `O=C1CCc2cc(Nc3ncc(C(F)(F)F)c(OCCNC(=O)OCc4ccccc4)n3)ccc2N1` [Example 261, Benzyl (2-((2-((2-oxo-1,2,3,4-tetrahydroquinolin-6-yl)amino)-5-(trifluoromethyl)pyrimidin-4-yl)oxy)ethyl)carbamate] is higher in IC50: 200 to 2000 nM for the first, > 2000 nM for the second. The first is the more potent here.

`CN(C)c1nc(Nc2ccc3c(c2)CCC(=O)N3)ncc1C(F)(F)F` [Example 220b, 6-((4-(dimethylamino)-5-(trifluoromethyl)pyrimidin-2-yl)amino)-3,4-dihydroquinolin-2(1H)-one] and `O=C1CCc2cc(Nc3ncc(C(F)(F)F)c(OC4COC4)n3)ccc2N1` [Example 231a, 6-((4-(oxetan-3-yloxy)-5-(trifluoromethyl)pyrimidin-2-yl)amino)-3,4-dihydroquinolin-2(1H)-one] cannot be ordered by IC50: < 200 nM for the first, < 200 nM for the second.

`c1cc(NC2CC2)nc(Nc2ccc3c(c2)OCCO3)n1` [Example 224, N4-cyclopropyl-N2-(2,3-dihydrobenzo[b][1,4]dioxin-6-yl)pyrimidine-2,4-diamine] and `O=C1CCc2cc(Nc3nc(NC4CC4)c4ccccc4n3)ccc2N1` [Example 263, 6-((4-(cyclopropylamino)quinazolin-2-yl)amino)-3,4-dihydroquinolin-2(1H)-one] cannot be ordered by IC50: > 2000 nM for the first, > 2000 nM for the second.

First: O=c1[nH]c2ccc(Nc3ncc(Br)c(Nc4ccc5[nH]c(=O)[nH]c5c4)n3)cc2[nH]1 [Example 233, 5,5′-((5-bromopyrimidine-2,4-diyl)bis(azanediyl))bis(1,3-dihydro-2H-benzoimidazol-2-one)]
Second: CNC(=O)c1cccc(Oc2nc(Nc3ccc4c(c3)CCC(=O)N4)ncc2Br)c1 [Example 268, 3-((5-bromo-2-((2-oxo-1,2,3,4-tetrahydroquinolin-6-yl)amino)pyrimidin-4-yl)oxy)-N-methylbenzamide]
The IC50 of the first is lower: < 200 nM for the first, 200 to 2000 nM for the second.

First: COc1cc(Nc2ncc(Cl)c(N(C)C(=O)c3ccccc3O)n2)cc(OC)c1OC [Example 234b, N-(5-chloro-2-((3,4,5-trimethoxyphenyl)amino)pyrimidin-4-yl)-2-hydroxy-N-methylbenzamide]
Second: COc1cc(Nc2ncc(Br)c(Oc3ccccc3C(=O)N(C)C)n2)cc(OC)c1OC [Example 245, 2-((5-bromo-2-((3,4,5-trimethoxyphenyl)amino)pyrimidin-4-yl)oxy)-N,N-dimethylbenzamide]
The IC50 of the first is higher: 200 to 2000 nM for the first, < 200 nM for the second.

First: CNC(=O)c1cccc(Oc2nc(Nc3cc(OC)c(OC)c(OC)c3)ncc2Br)c1 [Example 242, 3-((5-bromo-2-((3,4,5-trimethoxyphenyl)amino)pyrimidin-4-yl)oxy)-N-methylbenzamide]
Second: CNC(=O)c1c(O)cccc1Oc1nc(Nc2cc(OC)c(OC)c(OC)c2)ncc1Br [Example 257, 2-((5-bromo-2-((3,4,5-trimethoxyphenyl)amino)pyrimidin-4-yl)oxy)-6-hydroxy-N-methylbenzamide]
The IC50 of the first is higher: 200 to 2000 nM for the first, < 200 nM for the second. The second is the more potent here.

`COc1cc(Nc2ncc(Br)c(Oc3ccccc3C(N)=O)n2)cc(OC)c1OC` [Example 249, 2-((5-bromo-2-((3,4,5-trimethoxyphenyl)amino)pyrimidin-4-yl)oxy)benzamide] and `COc1cc(Nc2ncc(Br)c(Oc3ccccc3N)n2)cc(OC)c1OC` [Example 254b, 4-(2-aminophenoxy)-5-bromo-N-(3,4,5-trimethoxyphenyl)pyrimidin-2-amine] cannot be ordered by IC50: < 200 nM for the first, < 200 nM for the second.

`CNC(=O)c1cccc(OC)c1Oc1nc(Nc2cc(OC)c(OC)c(OC)c2)ncc1Br` [Example 252, 2-((5-bromo-2-((3,4,5-trimethoxyphenyl)amino)pyrimidin-4-yl)oxy)-3-methoxy-N-methylbenzamide] and `COc1cc(Nc2ncc(Br)c(Oc3ccccc3NC(C)=O)n2)cc(OC)c1OC` [Example 254a, N-(2-((5-bromo-2-((3,4,5-trimethoxyphenyl)amino)pyrimidin-4-yl)oxy)phenyl)acetamide] cannot be ordered by IC50: < 200 nM for the first, < 200 nM for the second.

`COc1cc(Nc2ncc(Br)c(Oc3ccccc3)n2)cc(OC)c1OC` [Example 266, 5-bromo-4-phenoxy-N-(3,4,5-trimethoxyphenyl)pyrimidin-2-amine] and `COCc1ccccc1Oc1nc(Nc2cc(OC)c(OC)c(OC)c2)ncc1Br` [Example 274, 5-bromo-4-(2-(methoxymethyl)phenoxy)-N-(3,4,5-trimethoxyphenyl)pyrimidin-2-amine] cannot be ordered by IC50: < 200 nM for the first, < 200 nM for the second.

Compared with `COc1cc(Nc2ncc(Br)c(Oc3ccccc3C(=O)NC3CC3)n2)cc(OC)c1OC` [Example 270, 2-((5-bromo-2-((3,4,5-trimethoxyphenyl)amino)pyrimidin-4-yl)oxy)-N-cyclopropylbenzamide], `COc1cc(Nc2ncc(Br)c(Oc3ccccc3NC(=O)C3CC3)n2)cc(OC)c1OC` [Example 281, N-(2-((5-bromo-2-((3,4,5-trimethoxyphenyl)amino)pyrimidin-4-yl)oxy)phenyl)cyclopropanecarboxamide] is lower in IC50: 200 to 2000 nM for the first, < 200 nM for the second.

Compared with `COc1cc(Nc2ncc(Br)c(Oc3ccccc3C(=O)N3CCCC3)n2)cc(OC)c1OC` [Example 277, (2-((5-bromo-2-((3,4,5-trimethoxyphenyl)amino)pyrimidin-4-yl)oxy)phenyl)(pyrrolidin-1-yl)methanone], `COc1cc(Nc2ncc(Br)c(Oc3ccccc3-c3nc(C)co3)n2)cc(OC)c1OC` [Example 290, 5-bromo-4-(2-(4-methyloxazol-2-yl)phenoxy)-N-(3,4,5-trimethoxyphenyl)pyrimidin-2-amine] is higher in IC50: < 200 nM for the first, > 2000 nM for the second. The first is the more potent here.

`FC(F)(F)c1cnc(Nc2cccc3ncccc23)nc1NC1CC1` [Example 278, N4-cyclopropyl-N2-(quinolin-5-yl)-5-(trifluoromethyl) pyrimidine-2,4-diamine] and `N#Cc1cnc(NC2CC2)nc1Nc1ccc2c(c1)CCC(=O)N2` [Example 287] cannot be ordered by IC50: > 2000 nM for the first, > 2000 nM for the second.

With `O=[N+]([O-])c1cnc(NC2CC2)nc1NC1CC1` [Example 291b, N2,N4-dicyclopropyl-5-nitropyrimidine-2,4-diamine] the IC50 was > 2000 nM.
